The first experiment addresses human CNR2 receptors (CB2 receptor) (Homo sapiens (Human), UniProt P34972). The experiment is described as follows: Radioligand binding assay, human CB2 (CNR2).
Conditions: not given
The protocol:
Radioligand Binding Assay
The affinity of the compounds of the invention for cannabinoid CB1 receptors was determined using recommended amounts of membrane preparations (PerkinElmer) of human embryonic kidney (HEK) cells expressing the human CNR1 or CNR2 receptors in conjunction with 1.5 or 2.6 nM [3H]-CP-55,940 (Perkin Elmer) as radioligand, respectively. Binding was performed in binding buffer (50 mM Tris, 5 mM MgCl2, 2.5 mM EDTA, and 0.5% (wt/vol) fatty acid free BSA, pH 7.4 for CB1 receptor and 50 mM Tris, 5 mM MgCl2, 2.5 mM EGTA, and 0.1% (wt/vol) fatty acid free BSA, pH 7.4 for CB2 receptor) in a total volume of 0.2 ml for 1 h at 30° C. shaking. The reaction was terminated by rapid filtration through microfiltration plates coated with 0.5% polyethylenimine (UniFilter GFB filter plate; Packard). Bound radioactivity was analyzed for Ki using nonlinear regression analysis (Activity Base, ID Business Solution, Limited), with the Kd values for [3H]CP55,940 determined from saturation experiments. The compounds of formula (I) show an excellent affinity for the CB2 receptor.
The compounds according to formula (I) have an activity in the above assay (Ki) between 0.5 nM and 10 μM. Particular compounds of formula (I) have an activity in the above assay (Ki) between 0.5 nM and 3 μM. Other particular compounds of formula (I) have an activity in the above assay (Ki) between 0.5 nM and 100 nM.
human CNR2 receptors (CB2 receptor), sequence (P34972 whole entry): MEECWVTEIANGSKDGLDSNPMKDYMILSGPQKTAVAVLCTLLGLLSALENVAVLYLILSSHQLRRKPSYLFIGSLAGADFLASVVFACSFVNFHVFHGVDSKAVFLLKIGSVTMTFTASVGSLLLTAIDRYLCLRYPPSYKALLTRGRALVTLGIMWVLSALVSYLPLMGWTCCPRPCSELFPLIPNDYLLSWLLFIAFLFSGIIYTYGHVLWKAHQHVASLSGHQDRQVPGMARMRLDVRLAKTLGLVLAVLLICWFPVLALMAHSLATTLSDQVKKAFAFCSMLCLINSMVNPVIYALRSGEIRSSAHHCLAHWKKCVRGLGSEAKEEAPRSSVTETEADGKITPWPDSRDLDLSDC
What is called Ki is the equilibrium dissociation constant of an inhibitor or competing ligand from its target. `CCC(CC)(NC(=O)c1ccc(N2CC(OS(=O)(=O)c3ccc(C)cc3)C2)c(OC[C@H]2C[C@@H]2CO)n1)C(=O)OCCCF` (racemic) [Example 31, (Rac)-trans-3-fluoropropyl 2-ethyl-2-[[6-[[-2-(hydroxymethyl)cyclopropyl]methoxy]-5-[3-(p-tolylsulfonyloxy)azetidin-1-yl]pyridine-2-carbonyl]amino]butanoate] returned a Ki of 11.7 nM.

Consider `CCC(CC)(NC(=O)c1ccc(N2CC(OC)C2)c(OC[C@H]2C[C@@H]2CO)n1)C(=O)OCF` (stereo in doubt) [Example 12, (+)-trans-Fluoromethyl 2-ethyl-2-{[6-{[-2-(hydroxymethyl)cyclopropyl]methoxy}-5-(3-methoxyazetidin-1-yl)pyridine-2-carbonyl]amino}butanoate], for which affinity was put at a Ki of 0.4 nM.

Still in this experiment, the particulars now being: membranes of HEK cells expressing human CNR2, 2.6 nM [3H]-CP-55,940 radioligand; read-out: Binding assay human CB2 Ki.
Take `CCC(CC)(NC(=O)c1ccc(N2CC(OC)C2)c(OC[C@H]2C[C@@H]2COCc2ccccc2)n1)C(=O)OCCCF` [Example 32, 3-Fluoropropyl 2-[[6-[[(1S,2S)-2-(benzyloxymethyl)cyclopropyl]methoxy]-5-(3-methoxyazetidin-1-yl)pyridine-2-carbonyl]amino]-2-ethyl-butanoate]: the inhibition constant Ki worked out at 246 nM.

On to `CCOC(=O)C(CC)(CC)NC(=O)c1cc(F)c(N2CC(OC)C2)c(OCC2CC2)n1` [Example 7, Ethyl 2-{[6-(cyclopropylmethoxy)-4-fluoro-5-(3-methoxyazetidin-1-yl)pyridine-2-carbonyl]amino}-2-ethylbutanoate], for which the Ki worked out at 2.5 nM.

Consider `COC1CN(c2ccc(C(=O)N[C@H](COCCF)CC(C)C)nc2OCC2COC2)C1` [Example 17, N-[(2S)-1-(2-Fluoroethoxy)-4-methylpentan-2-yl]-5-(3-methoxyazetidin-1-yl)-6-[(oxetan-3-yl)methoxy]pyridine-2-carboxamide], for which the Ki is 331 nM.

In the case of `CCOC(=O)C(CC)(CC)NC(=O)c1ccc(N2CC(OC)C2)c(OC[C@@H]2C[C@H]2COCF)n1` [Example 10, (−)-trans-Ethyl 2-ethyl-2-{[6-({-2-[(fluoromethoxy)methyl]cyclopropyl}methoxy)-5-(3-methoxyazetidin-1-yl)pyridine-2-carbonyl]amino}butanoate], the Ki was 8.2 nM.

For `CC(C)C[C@@H](COCCF)NC(=O)c1ccc(N2CCCC2)c(OCC2COC2)n1` [Example 18, N-[(2S)-1-(2-Fluoroethoxy)-4-methylpentan-2-yl]-6-[(oxetan-3-yl)methoxy]-5-(pyrrolidin-1-yl)pyridine-2-carboxamide], the inhibition constant Ki came out at 21 nM.

Consider `[2H]C([2H])(F)C([2H])([2H])C([2H])([2H])OC(=O)C(CC)(CC)NC(=O)c1ccc(N2CC(OC)C2)c(OC[C@H]2C[C@@H]2CO)n1` [Example 19, (1,1,2,2,3,3-Hexadeuterio-3-fluoro-propyl) 2-ethyl-2-[[6-[[(1S,2S)-2-(hydroxymethyl)cyclopropyl]methoxy]-5-(3-methoxyazetidin-1-yl)pyridine-2-carbonyl]amino]butanoate], for which the Ki was determined as 0.8 nM.

Take `CCOC(=O)C(CC)(CC)NC(=O)c1ccc(N2CC(OC)C2)c(OC[C@H]2C[C@@H]2CF)n1` (mixture of isomers) [Example 3, Ethyl 2-ethyl-2-{[6-{[(1S,2S)-2-(fluoromethyl)cyclopropyl]methoxy}-5-(3-methoxyazetidin-1-yl)pyridine-2-carbonyl]amino}butanoate and ethyl 2-ethyl-2-{[6-{[(1R,R)-2-(fluoromethyl)cyclopropyl]methoxy}-5-(3-methoxyazetidin-1-yl)pyridine-2-carbonyl]amino}butanoate]: the Ki was 0.5 nM.

`CCOC(=O)C(CC)(CC)NC(=O)c1ccc(N2CC(OC)C2)c(OCC(C)(C)COCF)n1` [Example 8, Ethyl 2-ethyl-2-({6-[3-(fluoromethoxy)-2,2-dimethylpropoxy]-5-(3-methoxyazetidin-1-yl)pyridine-2-carbonyl}amino)butanoate]: the Ki is 143 nM.

Turning to `CCOC(=O)C(CC)(CC)NC(=O)c1ccc(N2CC(OC)C2)c(OC[C@@H]2C[C@@H]2COCF)n1` (mixture of isomers) [Example 5, Ethyl 2-ethyl-2-{[6-({(1R,2S)-2-[(fluoromethoxy)methyl]cyclopropyl}methoxy)-5-(3-methoxyazetidin-1-yl)pyridine-2-carbonyl]amino}butanoate and ethyl 2-ethyl-2-{[6-({(1S,2R)-2-[(fluoromethoxy)methyl]cyclopropyl}methoxy)-5-(3-methoxyazetidin-1-yl)pyridine-2-carbonyl]amino}butanoate], the Ki was 4.6 nM.

For the compound `CCC(CC)(NC(=O)c1ccc(N2CC(OC)C2)c(OC[C@@H]2C[C@H]2CO)n1)C(=O)OCF` [Example 11, (−)-trans-Fluoromethyl 2-ethyl-2-{[6-{[(1R,2R)-2-(hydroxymethyl)cyclopropyl]methoxy}-5-(3-methoxyazetidin-1-yl)pyridine-2-carbonyl]amino}butanoate], the inhibitory constant (Ki) is 9.7 nM.

`CCC(CC)(NC(=O)c1ccc(N2CC(F)C2)c(OC[C@H]2C[C@@H]2CO)n1)C(=O)N[C@H](CO)CC(C)C` (single isomer, unassigned) [Example 28, N-[1-Ethyl-1-[[(1S)-1-(hydroxymethyl)-3-methyl-butyl]carbamoyl]propyl]-5-(3-fluoroazetidin-1-yl)-6-[[(1S,2S)-2-(hydroxymethyl)cyclopropyl]methoxy]pyridine-2-carboxamide or N-[1-ethyl-1-[[(1S)-1-(hydroxymethyl)-3-methyl-butyl]carbamoyl]propyl]-5-(3-fluoroazetidin-1-yl)-6-[[(1R,2R)-2-(hydroxymethyl)cyclopropyl]methoxy]pyridine-2-carboxamide]: the Ki was found to be 3940 nM.

As to `C=CC(C=C)(NC(=O)c1ccc(N2CC(OC)C2)c(OC[C@H]2C[C@@H]2CO)n1)C(=O)OCCCF` [Example 20, 3-Fluoropropyl 2-[6-[[(1S,2S)-2-(hydroxymethyl)cyclopropyl]methoxy]-5-(3-methoxyazetidin-1-yl)pyridine-2-carbonylamino]-2-vinyl-but-3-enoate], the Ki is 525 nM.

For the compound `CCOC(=O)C(CC)(CC)NC(=O)c1ccc(N2CC(OC)C2)c(OC[C@@H]2C[C@@H]2CF)n1` (mixture of isomers) [Example 4, Ethyl 2-ethyl-2-{[6-{[(1R,2S)-2-(fluoromethyl)cyclopropyl]methoxy}-5-(3-methoxyazetidin-1-yl)pyridine-2-carbonyl]amino}butanoate and ethyl 2-ethyl-2-{[6-{[(1S,2R)-2-(fluoromethyl)cyclopropyl]methoxy}-5-(3-methoxyazetidin-1-yl)pyridine-2-carbonyl]amino}butanoate], the Ki worked out at 0.7 nM.

(Values after US11655243B2, “Pyridine and pyrazine derivatives as preferential cannabinoid 2 agonists” (HOFFMANN-LA ROCHE INC., priority 2018, dated 2023).)
